This note sets out measurements from article PMC10218941, “Design, Synthesis, Antiproliferative Actions, and DFT Studies of New Bis–Pyrazoline Derivatives as Dual EGFR/BRAF^V600E Inhibitors” (International Journal of Molecular Sciences, 2023).

SMILES strings stand for the structures.

Series [1] has as its system four human cancer cell lines (A-549, MCF-7, Panc-1, HT-29). Description: Antiproliferative assay, mean of four cancer cell lines (GI50). The class given is cell-based. Particulars: mean over A-549, MCF-7, Panc-1, HT-29.
The test system of series [2] is MCF-7 (breast cancer cell line). Description: Antiproliferative assay (MTT), MCF-7. It counts as cell-based. Particulars: Homo sapiens, MCF7; read-out: Antiproliferative Activity IC50 ± SEM (µM) MCF-7. As for the experimental part: (§1) The antiproliferative activity of pyrazoline hybrids 8–17 was tested against the four human cancer cell lines Panc-1 (pancreatic cancer cell line), MCF-7 (breast cancer cell line), HT-29 (colon cancer cell line), and A-549 (lung cancer cell line) using the MTT assay and doxorubicin as the reference drug. See Appendix SA (Supplementary File).
(§2) 4.2. Biological evaluation
(§3) 4.2.1. Cytotoxic activity using MTT Assay and evaluation of IC50 […]
(§4) 96-well flat-bottomed cell culture plates were used to seed the cells at a […]
(§5) of 10^4 cells mL-1. The medium was aspirated from all the wells of culture plates after 24 h followed by the addition of synthesized compounds (in 200 μL medium to yield a final concentration of 0.1% (v/v) dimethyl sulfoxide) into individual wells of the plates. Four wells were designated to a single compound. The plates were allowed to incubate at 37°C for 96 h. Afterwards, the medium was aspirated and 3 -[4,5-dimethylthiazol-2-yl]-2,5-diphenyltetrazolium bromide (MTT) (0.4 mg/mL) in medium was added to each well and subsequent ly incubated for 3 h. The medium was aspirated and 150 μL dimethyl sulfoxide (DMSO) was added to each well. The plates were vortexed followed by the measurement of absorbance at 540 nm on a microplate reader. The results were presented as inhibition (%) of proliferation in contrast to controls comprising 0.1% 4.2.1.2. Assay for antiproliferative effect
(§6) To explore the antiproliferative potential of compounds propidium iodide fluorescence assay was performed using different cell lines such as Panc -1 (pancreas cancer cell line), MCF-7 (breast cancer cell line), HT-29 (colon cancer cell line) and A-549 (epithelial cancer cell line), respectively. To calculate the total nuclear DNA, a fluorescent dye (propidium iodide, PI) is used which can attach to the DNA, thus offering a quick and precise technique. PI cannot pass through the cell membrane and its signal intensity can be considered as directly proportional to quantity of cellular DNA. Cells whose cell membranes are damaged or have changed permeability are counted as dead ones. The assay was performed by seeding the cells of different cell lines at a density of 3000-7500 cells/well (in200μl medium) in culture plates followed by incubation for 24h at 37 °C in humidified 5%CO2/95% air atmospheric conditions. The medium was removed; the compounds were added to the plates at 10 μM concentrations (in 0.1% DMSO) in triplicates, followed by incubation for 48h. DMSO (0.1%) was used as control. After incubation, medium was removed followed by the addition of PI (25 μl, 50μg/mL in water/medium) to each well of the plates. At - 80 °C, the plates were allowed to freeze for 24 h, followed by thawing at 25 °C. A fluorometer (Polar-Star BMG Tech) was used to record the readings at excitation and emission wavelengths of 530 and 620 nm for each well. The percentage cytotoxicity of compounds was calculated using […]
(§7) Where ATC= Absorbance of treated cells and AC= Absorbance of control. Erlotinib was used as positive control in the assay. […]

For series [3], the system named is Panc-1 (pancreatic cancer cell line). Description: Antiproliferative assay (MTT), Panc-1. The class given is cell-based. Particulars: Homo sapiens, read-out: Antiproliferative Activity IC50 ± SEM (µM) Panc-1. As to the method:
The antiproliferative activity of pyrazoline hybrids 8–17 was tested against the four human cancer cell lines Panc-1 (pancreatic cancer cell line), MCF-7 (breast cancer cell line), HT-29 (colon cancer cell line), and A-549 (lung cancer cell line) using the MTT assay and doxorubicin as the reference drug. See Appendix SA (Supplementary File). […]
4.2.1.2. Assay for antiproliferative effect
as §6, §7

A short description of series [4]: Cell viability assay (MTT) on normal mammary epithelial cells. It counts as cell-based. To be noted: human, MCF-10A normal mammary gland epithelial cells, MCF-10A cells, four days. As to the method:
To test the viability of new substances, the epithelial (MCF-10A) cell line of the normal human mammary gland was used. Compounds 8–17 were incubated for four days on MCF-10A cells before being tested for viability using the MTT assay. According to Table 1, none of the substances tested were cytotoxic, and cell viability at 50 µM was greater than 87% for the compounds tested.
The normal human mammary gland epithelial (MCF-10A) cell line was used to test the viability of new compounds [46, 47]. See Appendix SA (Supplementary File).
as §2
4.2.1. Cytotoxic activity using MTT Assay and evaluation of IC50
MTT assay was performed to investigate the effect of the synthesized compounds on mammary epithelial cells (MCF-10A). The cells were propagated in medium consisting of Ham's F-12 medium/ Dulbecco's modified Eagle's medium (DMEM) (1:1) supplemented with 10% foetal calf serum, 2 mM glutamine, insulin (10 μg/mL), hydrocortisone (500 ng/mL) and epidermal growth factor (20 ng/mL). Trypsin ethylenediamine tetra acetic acid (EDTA) was used to passage the cells after every 2-3 days. 96-well flat-bottomed cell culture plates were used to seed the cells at a […]
as §5, with “The results were presented as inhibition (%) of proliferation in contrast to controls comprising 0.1% 4.2.1.2. Assay for antiproliferative effect” left out

A further series addresses BRAF^V600E. Description: BRAF^V600E inhibitory assay.
Series [5] has as its system A-549 (lung cancer cell line). The experiment in a line: Antiproliferative assay (MTT), A-549. To be noted: Homo sapiens, A549; read-out: Antiproliferative Activity IC50 ± SEM (µM) A-549. The class given is cell-based. As for the experimental part:
as §1, §2, §3, §4, §5, §6, §7

BRAF^V600E, sequence (P28028 whole entry V585E): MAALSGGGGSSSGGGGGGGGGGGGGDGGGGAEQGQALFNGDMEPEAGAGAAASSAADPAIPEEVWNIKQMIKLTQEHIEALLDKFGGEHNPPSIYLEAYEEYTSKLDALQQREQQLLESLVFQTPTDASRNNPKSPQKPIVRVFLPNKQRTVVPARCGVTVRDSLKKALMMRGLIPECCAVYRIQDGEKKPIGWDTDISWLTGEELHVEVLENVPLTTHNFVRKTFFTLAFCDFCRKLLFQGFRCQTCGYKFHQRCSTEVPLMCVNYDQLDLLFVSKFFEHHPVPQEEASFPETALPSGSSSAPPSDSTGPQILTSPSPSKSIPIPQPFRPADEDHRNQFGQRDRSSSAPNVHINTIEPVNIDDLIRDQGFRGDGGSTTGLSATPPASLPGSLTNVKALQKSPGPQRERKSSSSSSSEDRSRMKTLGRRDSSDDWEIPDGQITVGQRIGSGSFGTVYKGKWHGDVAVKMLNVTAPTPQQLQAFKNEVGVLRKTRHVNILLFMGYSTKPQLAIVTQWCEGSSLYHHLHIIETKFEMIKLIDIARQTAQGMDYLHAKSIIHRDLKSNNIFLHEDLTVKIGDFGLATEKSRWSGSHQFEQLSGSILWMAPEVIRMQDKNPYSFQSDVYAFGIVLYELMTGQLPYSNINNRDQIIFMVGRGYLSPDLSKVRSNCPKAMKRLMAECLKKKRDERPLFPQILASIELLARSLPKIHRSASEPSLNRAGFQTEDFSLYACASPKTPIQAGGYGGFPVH
Description for BRAF^V600E: V600E mutant BRAF kinase assay was performed to investigate the activity of tested compounds against BRAF. Mouse full-length GST-tagged BRAFV600E (7.5 ng, Invitrogen, PV3849) was pre-incubated with drug (1 µL) and assay dilution buffer (4 µL) for 60 min at 25 °C. In assay dilution buffer, a solution (5 µL) containing MgCl2 (30 mM), ATP (200 µM), recombinant human full length (200 ng) and N-terminal His-tagged MEK1 (Invitrogen) was added to start the assay, subsequent to incubation for 25 min at 25 °C. The assay was stopped using 5X protein denaturing buffer (LDS) solution (5 µL). To further denature the protein, heat (70° C) was applied for 5 min.
10 µL of each reaction was loaded into the precast plates and electrophoresis was allowed to proceed. After completion of electrophoresis, the front part of the precast gel plate (holding hot ATP) was cut and afterwards cast-off. The dried gel was developed using a phosphor screen.
served as positive control.

On to `COc1ccc(C2CC(c3ccc(OCC(=O)Nc4ccc(C5=NNC(c6ccc(OC)c(OC)c6)C5)cc4)cc3)=NN2)cc1` (stereo not drawn) [Compound 12, 2-(4-(5-(4-Methoxyphenyl)-4,5-dihydro-1H-pyrazol-3-yl)phenoxy)-N-(4-(5-(3,4-dimethoxyphenyl)-4,5-dihydro-1H-pyrazol-3-yl)phenyl)acetamide], for which the IC50 came to 1050 nM in series [1]; 0.9 ± 0.1 µM in series [2]; 1.1 ± 0.1 µM in series [3]; 93 ± 6 nM against BRAF^V600E; 1 ± 0.1 µM in series [5]. The viability at 96 h, 50 µM in series [4] was 90%.
For the compound `COc1ccc(C2CC(c3ccc(NC(=O)COc4ccc(C5=NNC(c6ccc(OC)c(OC)c6)C5)cc4)cc3)=NN2)cc1` (stereo not drawn) [Compound 17, 2-(4-(5-(3,4-Dimethoxyphenyl)-4,5-dihydro-1H-pyrazol-3-yl)phenoxy)-N-(4-(5-(4-methoxyphenyl)-4,5-dihydro-1H-pyrazol-3-yl)phenyl)acetamide], the IC50 in series [1] was 1200 nM; in series [2] it was 1 ± 0.1 µM; in series [3], 1.3 ± 0.1 µM; at BRAF^V600E, 107 ± 9 nM; in series [5] it was 1.2 ± 0.1 µM. In series [4], this compound yielded a viability at 96 h, 50 µM of 91%.
